The target of series [1] is T1, human dopamine D2L receptors (long isoform) (Homo sapiens, UniProt P14416).
T1 construct: expressed in transfected cells; host or cells: HEK-293
The series can be described thus: Dopamine D2L receptor binding, displacement of [125I] iodospiperone. To be noted: membranes of HEK-293 cells, 0.01 nM [125I] iodospiperone, 25° C., 60 minutes; read-out: Ki D2. The method, then:
(§1) The substance to be tested was either dissolved in methanol/Chremophor® (BASF-AG) or in dimethyl sulfoxide and then diluted with water to the desired concentration.
(§2) Each assay mixture was run in triplicate.
The incubation buffer contained 50 mM tris, 120 mM NaCl, 5 mM KCl, 2 mM CaCl2, 2 mM MgCl2 and 0.1% bovine serum albumin. The buffer was adjusted to pH 7.4 with HCl.
(§3) After having been incubated at 25° C. for 60 minutes, the assay mixtures were filtered through a Wathman GF/B glass fiber filter under vacuum using a cell collecting device. The filters were transferred to scintillation viols using a filter transfer system. After 4 ml of Ultima Gold® (Packard) have been added, the samples were shaken for one hour and the radioactivity was then counted in a Beta-Counter (Packard, Tricarb 2000 or 2200CA). The cpm values were converted into dpm using a standard quench series and the program belonging to the instrument.
(§4) The inhibition curves were analyzed by means of iterative nonlinear regression analysis using the Statistical Analysis System (SAS) which is similar to the “LIGAND” program described by Munson and Rodbard.

Series [2] concerns the target T2, human dopamine D3 receptors (Homo sapiens, UniProt P35462).
T2 construct: expressed in transfected cells; host or cells: HEK-293
The series can be described thus: Dopamine D3 receptor binding, displacement of [125I]-iodosulpride. To be noted: for Ki: membranes of HEK-293 cells, 0.1 nM [125I]-iodosulpride, 25° C., 60 minutes; for Selectivity [Ki(D2)/Ki(D3)]: ratio of Ki D2 to Ki D3. The method, then: as §1, §2
The incubation buffer contained 50 mM tris, 120 mM NaCl, 5 mM KCl, 2 mM CaCl2, 2 mM MgCl2 and 0.1% bovine serum albumin, 10 μM quinolone and 0.1% ascorbic acid (prepared fresh daily). The buffer was adjusted to pH 7.4 with HCl.
as §3, §4
In general terms: Loss of bound radioactivity is the signal in a displacement assay; it reports binding, not function.

T2 sequence (P35462 whole entry): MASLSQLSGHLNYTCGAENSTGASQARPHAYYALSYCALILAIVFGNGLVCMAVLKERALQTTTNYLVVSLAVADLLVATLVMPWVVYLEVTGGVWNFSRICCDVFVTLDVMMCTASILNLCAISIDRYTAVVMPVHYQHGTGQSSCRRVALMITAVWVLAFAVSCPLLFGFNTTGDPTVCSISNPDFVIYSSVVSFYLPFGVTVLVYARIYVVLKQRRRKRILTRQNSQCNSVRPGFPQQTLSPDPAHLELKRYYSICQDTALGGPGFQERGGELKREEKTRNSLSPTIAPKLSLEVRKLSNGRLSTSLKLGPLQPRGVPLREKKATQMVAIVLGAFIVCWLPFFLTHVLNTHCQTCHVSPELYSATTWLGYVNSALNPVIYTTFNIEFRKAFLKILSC
T1 sequence (P14416 whole entry, canonical isoform): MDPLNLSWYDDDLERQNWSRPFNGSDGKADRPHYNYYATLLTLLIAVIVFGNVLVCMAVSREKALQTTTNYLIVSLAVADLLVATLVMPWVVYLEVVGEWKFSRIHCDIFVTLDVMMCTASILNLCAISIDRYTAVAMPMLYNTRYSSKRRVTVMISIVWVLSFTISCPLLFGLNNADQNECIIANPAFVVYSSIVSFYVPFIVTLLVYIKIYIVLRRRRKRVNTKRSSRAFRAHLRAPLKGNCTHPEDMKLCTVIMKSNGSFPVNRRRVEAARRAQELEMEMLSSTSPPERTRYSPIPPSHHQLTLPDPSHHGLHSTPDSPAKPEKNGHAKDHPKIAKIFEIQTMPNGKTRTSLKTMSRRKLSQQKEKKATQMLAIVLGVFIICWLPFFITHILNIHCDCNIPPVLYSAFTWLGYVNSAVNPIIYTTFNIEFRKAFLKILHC

By Ki is commonly meant a measure of affinity in units of concentration, obtained from inhibition or displacement. Turning to `Cn1c(N)nnc1SCCCN1CCN(c2cc(C(C)(C)C)nc(C(C)(C)C)n2)CC1` [A], the Ki in series [1] turned out to be 12 nM. Besides, in series [2], the Ki stood at 0.7 nM and the “Selectivity [Ki(D2)/Ki(D3)]” value was 19.
Regarding `Cn1c(N)nnc1SCCCN1CCN(c2cc(C(F)(F)F)nc(C(C)(C)C)n2)CC1` [B], the inhibition constant Ki in series [1] is 119 nM; in series [2], 3.9 nM. The “Selectivity [Ki(D2)/Ki(D3)]” value in series [2] was 31.
Broadly, the melting point is the temperature, or range, at which the solid turns liquid. `Cl.Cn1cnnc1SCCCN1CCN(c2cc(C(F)(F)F)nc(C(C)(C)C)n2)CC1` [Example 6, 2-tert-Butyl-4-{4-[3-(4-methyl-4H-[1,2,4]triazol-3-ylsulfanyl)-propyl]-piperazin-1-yl}-6-trifluoromethyl-pyrimidine hydrochloride] registered a melting point of 92 to 95 °C.

The values above are taken from patent US6919342B2, “Triazole compounds suitable for treating disorders that respond to modulation of the dopamine D3 receptor” (Abbott GmbH & Co. KG, priority 2003, dated 2005).
